In PubChem BioAssay AID1794811:
pEC50: −log10 of the molar value.

Target: High affinity choline transporter 1 (Homo sapiens) (UniProt Q9GZV3)
Test: PubChem AID 1794811
Conditions: HEK-293 JumpIN-SLC5A7, FLIPR membrane potential dye

Chain of High affinity choline transporter 1 (Homo sapiens) (Q9GZV3 whole entry, looked up): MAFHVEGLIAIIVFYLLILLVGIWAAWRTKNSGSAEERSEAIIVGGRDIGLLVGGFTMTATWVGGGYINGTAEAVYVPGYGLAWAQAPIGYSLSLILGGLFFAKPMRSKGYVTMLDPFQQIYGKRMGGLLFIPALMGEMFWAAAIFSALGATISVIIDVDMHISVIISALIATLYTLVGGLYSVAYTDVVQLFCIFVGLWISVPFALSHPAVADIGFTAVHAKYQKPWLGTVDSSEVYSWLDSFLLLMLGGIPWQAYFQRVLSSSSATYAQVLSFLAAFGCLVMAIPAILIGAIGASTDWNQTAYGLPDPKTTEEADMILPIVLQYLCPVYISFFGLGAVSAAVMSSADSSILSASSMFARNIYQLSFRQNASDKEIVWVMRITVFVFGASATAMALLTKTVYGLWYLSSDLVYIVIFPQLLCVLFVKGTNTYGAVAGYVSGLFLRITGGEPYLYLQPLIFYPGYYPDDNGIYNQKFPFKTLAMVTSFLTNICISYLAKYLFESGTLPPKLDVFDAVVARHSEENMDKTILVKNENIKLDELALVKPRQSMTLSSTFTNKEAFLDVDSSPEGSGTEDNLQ

C[N+](C)(C)CCO
pEC50: 4.77
